Molecules are shown by their SMILES. ≈ marks a conversion by molar mass, not a printed value.

1 molecule from EP0425443A1, “Injectable antiparasitic agent” (CIBA-GEIGY AG, priority 1989, dated 1991) can be followed below.

The data set is described as follows: Solubility of the active substance in organic solvents. Type of data set: physicochemical. Conditions: dmso and n-methylpyrrolidone, organic solvent or mixture; in Dimethylsulfoxid und N-Methylpyrrolidon; Gewicht-pro-Volumen-Prozent; read-out: Solubility (lösen). An excerpt: Injizierbare Zubereitungen stellen wegen der sehr genauen Dosierbarkeit auch kleiner Wirkstoffmengen, der leichten Anwendbarkeit und der geringfügigen Beunruhigung der zu behandelnden Tiere, insbesondere grösserer Nutztiere, wie beispielsweise Rinder, Schafe, Pferde und Esel, oftmals die günstigste Applikationsart dar. Bei der Verwendung von schwerlöslichen Substanzen wie insbesondere den Benzoylphenylharnstoffen in Form injizierbarer Formulierungen ergeben sich jedoch Probleme, wenn mit ihnen ein wirksamer Plasmaspiegel, d.h., eine gleichmässige Verteilung einer ausreichenden Wirkstoffmenge im Plasma, erreicht werden soll, weil das injizierte Material von der Gewebsflüssigkeit beeinflusst wird und damit beispielsweise die physikalisch-chemischen Eigenschaften besagten Materials so verändert werden können, dass ein erheblicher Anteil des injizierten Materials sehr rasch kristallisiert und dadurch an der Injektionsstelle oder in sehr naher Umgebung davon verbleibt. So lassen sich Benzoylharnstoffe, beispielsweise N-[3-(3-Chlor-5-trifluormethylpyridyl-2-oxy)-4-chlorphenyl]-N'-[2,6-difluorbenzoyl]-hamstoff, in Dimethylsulfoxid und N-Methylpyrrolidon (etwa 35 %, Prozentangaben bedeuten hier und im folgenden Gewichtpro-Volumen-Prozent) lösen. […]

As a reminder, the solubility is how much of the substance goes into solution per volume. Regarding `O=C(NC(=O)c1c(F)cccc1F)Nc1ccc(Cl)c(Oc2ncc(C(F)(F)F)cc2Cl)c1` [N-[3-(3-Chlor-5-trifluormethylpyridyl-2-oxy)-4-chlorphenyl]-N'-[2,6-difluorbenzoyl]-harnstoff], the solubility was around 350 mg/mL (≈ 691 mM).
